The structures appear in SMILES notation. Bounds are passed on as bounds.

The target of the assay is T1, EP2 receptor (Homo sapiens, UniProt P43116).
T1 construct: expressed in transfected cells; host or cells: CHO-K1 cells (ATCC), transient transfection with FuGENE 6
T1 sequence (P43116 whole entry): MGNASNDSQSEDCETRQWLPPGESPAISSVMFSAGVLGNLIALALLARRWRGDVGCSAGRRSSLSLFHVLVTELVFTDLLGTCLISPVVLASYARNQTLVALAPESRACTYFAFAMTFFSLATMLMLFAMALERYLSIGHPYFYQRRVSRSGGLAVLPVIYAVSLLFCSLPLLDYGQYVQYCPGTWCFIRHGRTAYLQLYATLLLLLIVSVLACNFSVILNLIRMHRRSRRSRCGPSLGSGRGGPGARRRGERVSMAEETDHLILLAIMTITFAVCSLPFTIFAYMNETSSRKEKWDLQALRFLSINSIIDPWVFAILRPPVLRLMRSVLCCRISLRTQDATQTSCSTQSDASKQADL
The experiment in a line: EP2 Potency Assay (cAMP TR-FRET, CHO-K1 cells transfected with EP2 receptor, PGE2 at EC80). The following applies: CHO-K1 cells expressing EP2, prostaglandin E2 at EC80, read-out: EP2 Potency (IC50 category). The class given is cell-based. On the procedure: Compound potency was measured using a cAMP TR-FRET assay.
After 6 hours incubation, the cell media was replaced with F12 medium supplemented with 10% FBS and 100 U/ml Pen-Strep. 24 hours after transfection, cells were harvested and seeded at a density of 3000 cells/well in a 384 well plate to perform the cAMP assay, using the LANCE Ultra cAMP assay kit (PerkinElmer).
Plates were then centrifuged at 1000 rpm for 1 min, agitated at 600 rpm at R.T. for 2 min, and incubated at 25° C. for 5 min. The reference agonist, prostaglandin E2 (MCE), was added to each well at the appropriate concentration to reach its EC80 value. Plates were then centrifuged at 1000 rpm for 1 min, agitated at 600 rpm at R.T. for 2 min, and incubated at 25° C. for 30 min.
A dose-response curve was prepared by plotting percent inhibition for each compound concentration, and then IC50 was calculated by fitting a curve to the plotted values and extrapolating the IC50 concentration.
On the technique in general: Time-resolved FRET reads energy transfer from a long-lived donor to a nearby acceptor.
As to `COc1ncc(CN2CCOc3c(Cl)cc(-n4ccc5cncnc54)cc3C2)cn1` [Compound 42], the IC50 (as a rule, the concentration that gives 50% inhibition) was more than 5 µM.
Under `Fc1ccc2c(ccn2-c2cc(Cl)c3c(c2)CN(Cc2ccc(C(F)F)cc2)CCO3)c1` [Compound 124] stands more than 5 µM.
Under `O=c1ncc(CN2CCOc3c(Cl)cc(-n4ccc5cc(Cl)ccc54)cc3C2)c[nH]1` [Compound 62] stands 0.1 to 0.5 µM; under `O=c1ncc(CN2CCOc3c(Cl)cc(-n4ccc5cc(F)cnc54)cc3C2)c[nH]1` [Compound 70, 5-((9-chloro-7-(5-fluoro-1H-pyrrolo[2,3-b]pyridin-1-yl)-2,3-dihydrobenzo[f][1,4]oxazepin-4(5H)-yl)methyl)pyrimidin-2(1H)-one], 1 to 5 µM.
Consider `COc1ncc(CN2CCOc3c(Cl)cc(-n4ccc5c(F)c(Cl)ccc54)cc3C2)cn1` [Compound 26], for which the IC50 was in the range of 0.5 to 1 µM.
As for `COc1ncc(CN2CCOc3c(Cl)cc(-n4cc(Cl)c5cc(Cl)ccc54)cc3C2)cn1` [Compound 29], the IC50 was more than 5 µM.
Turning to `COc1ncc(CN2CCOc3c(Cl)cc(-n4ccc5cc(Br)ccc54)cc3C2)cn1` [Compound 22], the IC50 is more than 5 µM.
Take `COc1cc(CN2CCOc3c(Cl)cc(-n4ccc5cc(F)ccc54)cc3C2)cc(OC)n1` [Compound 197]: the IC50 was more than 5 µM.
Turning to `Cc1c(-n2ccc3cc(F)ccc32)cc(Cl)c2c1CN(Cc1cc[nH]c(=O)c1)CCO2` [Compound 238], the 50% inhibitory concentration (IC50) fell in the range of 1 to 5 µM.
Under `Cn1ccc(CN2CCOc3c(Cl)cc(-n4ccc5cc(F)ccc54)cc3C2)n1` [Compound 102] stands more than 5 µM.
Under `O=c1ncc(CN2CCOc3c(Cl)cc(-c4cccc5c4OCCO5)cc3C2)c[nH]1` [Compound 85] stands more than 5 µM; under `NC(=O)c1ncc(CN2CCOc3c(Cl)cc(-n4ccc5cc(F)ccc54)cc3C2)cn1` [Compound 143, 5-{[9-chloro-7-(5-fluoroindol-1-yl)-3,5-dihydro-2H-1,4-benzoxazepin-4-yl]methyl}pyrimidine-2-carboxamide], 1 to 5 µM; under `Fc1ccc2c(ccn2-c2cc(Cl)c3c(c2)CN(Cc2cncs2)CCO3)c1` [Compound 99], 0.5 to 1 µM.
Under `N#Cc1cccc(CN2Cc3cc(-n4ccc5cc(F)ccc54)cc(Cl)c3OCC23CC3)c1` [Compound 220] stands more than 5 µM; under `Fc1ccc2c(ccn2-c2cc(Cl)c3c(c2)CN(Cc2cncnc2)CC3)c1` [Compound 222], more than 5 µM.
For `Fc1ccc2c(ccn2-c2cc(Cl)c3c(c2)CN(Cc2ccsc2)CCO3)c1` [Compound 92], the IC50 is more than 5 µM.
Take `NC(=O)[C@H]1CC[C@H](CN2CCOc3c(Cl)cc(-n4ccc5cc(F)ccc54)cc3C2)CC1` [Compound 126]: the IC50 lay within 0.5 to 1 µM.
Under `COc1ncc(CN2CCOc3c(Cl)cc(N4CCOc5cc(F)ccc54)cc3C2)cn1` [Compound 51, 9-chloro-7-(7-fluoro-2,3-dihydro-1,4-benzoxazin-4-yl)-4-[(2-methoxypyrimidin-5-yl)methyl]-3,5-dihydro-2H-1,4-benzoxazepine] stands more than 5 µM.
In the case of `CNC(=O)[C@H]1CC[C@@H](CN2CCOc3c(Cl)cc(-n4ccc5cc(F)ccc54)cc3C2)CC1` [Compound 128, cis-4-{[9-chloro-7-(5-fluoroindol-1-yl)-3,5-dihydro-2H-1,4-benzoxazepin-4-yl]methyl}-N-methylcyclohexane-1-carboxamide], the IC50 was in the range of 1 to 5 µM.
Take `NCc1cc(CN2CCOc3c(Cl)cc(-n4ccc5cc(F)ccc54)cc3C2)ccn1` [Compound 184, 1-(4-{[9-chloro-7-(5-fluoroindol-1-yl)-3,5-dihydro-2H-1,4-benzoxazepin-4-yl]methyl}pyridin-2-yl)methanamine]: the IC50 fell in the range of 1 to 5 µM.
As to `O=c1ncc(CN2CCOc3c(Cl)cc(-n4ccc5nccnc54)cc3C2)c[nH]1` [Compound 76, 5-[(9-chloro-7-{pyrrolo[2,3-b]pyrazin-5-yl}-3,5-dihydro-2H-1,4-benzoxazepin-4-yl)methyl]-1H-pyrimidin-2-one trifluoroacetic acid], the IC50 is more than 5 µM.
Then `COc1ncc(CN2CCOc3c(Cl)cc(-n4ccc5cnccc54)cc3C2)cn1` [Compound 36], with more than 5 µM; and `COc1cc(CN2CCOc3c(Cl)cc(-n4ccc5cc(F)ccc54)cc32)ccn1` [Compound 224], with more than 5 µM; and `Nc1nc(CN2CCOc3c(Cl)cc(-n4ccc5cc(F)ccc54)cc3C2)ns1` [Compound 117, 3-{[9-chloro-7-(5-fluoroindol-1-yl)-3,5-dihydro-2H-1,4-benzoxazepin-4-yl]methyl}-1,2,4-thiadiazol-5-amine], with more than 5 µM.
In the case of `COc1cnc(CN2CCOc3c(Cl)cc(-n4ccc5cc(F)ccc54)cc3C2)cn1` [Compound 172], the IC50 is 1 to 5 µM.
Under `OCc1ncc(CN2CCOc3c(Cl)cc(-n4ccc5cc(F)ccc54)cc3C2)cn1` [Compound 141, (5-{[9-chloro-7-(5-fluoroindol-1-yl)-3,5-dihydro-2H-1,4-benzoxazepin-4-yl]methyl}pyrimidin-2-yl)methanol] stands 0.5 to 1 µM.
Under `Nc1cc(CN2CCOc3c(Cl)cc(-n4ccc5cc(F)ccc54)cc3C2)ccn1` [Compound 179, 4-{[9-chloro-7-(5-fluoroindol-1-yl)-3,5-dihydro-2H-1,4-benzoxazepin-4-yl]methyl}pyridin-2-amine] stands 1 to 5 µM.
With `Fc1ccc2c(ccn2-c2cc(Cl)c3c(c2)CN(Cc2ccnc(Cl)c2C(F)(F)F)CCO3)c1` [Compound 192], the IC50 is 0.1 to 0.5 µM.
For the compound `O=c1ncc(CN2CCOc3c(Cl)cc(-c4cccc5c4CCCC5)cc3C2)c[nH]1` [Compound 83], the IC50 is more than 5 µM.
Then `NC(=O)[C@H]1CC[C@@H](CN2CCOc3c(Cl)cc(-n4ccc5cc(F)ccc54)cc3C2)CC1` [Compound 125], with 1 to 5 µM; and `Fc1ccc2c(ccn2-c2cc(Cl)c3c(c2)CN(Cc2ccccc2C(F)F)CCO3)c1` [Compound 122, 9-chloro-4-(2-(difluoromethyl)benzyl)-7-(5-fluoro-1H-indol-1-yl)-2,3,4,5-tetrahydrobenzo[f][1,4]oxazepane], with more than 5 µM.
Under `COc1ncc(CN2CCOc3c(Cl)cc(N4Cc5ccc(F)cc5C4)cc3C2)cn1` [Compound 47, 9-chloro-7-(5-fluoro-1,3-dihydroisoindol-2-yl)-4-[(2-methoxypyrimidin-5-yl)methyl]-3,5-dihydro-2H-1,4-benzoxazepine] stands 1 to 5 µM; under `O=c1ncc(CN2CCOc3c(Cl)cc(-c4coc5ccccc45)cc3C2)c[nH]1` [Compound 84], 0.1 to 0.5 µM.
Then `COc1ncc(CN2CCOc3c(Cl)cc(-c4ncc5ccccn45)cc3C2)cn1` [Compound 40, 9-chloro-7-{imidazo[1,5-a]pyridin-3-yl}-4-[(2-methoxypyrimidin-5-yl)methyl]-3,5-dihydro-2H-1,4-benzoxazepine], with 1 to 5 µM; and `COc1ncc(CN2CCOc3c(Cl)cc(-n4c(C)cc5cc(F)ccc54)cc3C2)cn1` [Compound 30], with 1 to 5 µM.
Turning to `COc1ncc(CN2CCOc3c(Cl)cc(-n4ccc5cc(F)c(Cl)cc54)cc3C2)cn1` [Compound 28], the IC50 is more than 5 µM.
Under `Cc1cc2cc(F)ccc2n1-c1cc(Cl)c2c(c1)CN(Cc1cnc(=O)[nH]c1)CCO2` [Compound 66] stands 1 to 5 µM; under `[2H]C1([2H])c2cc(-n3ccc4cc(F)ccc43)cc(Cl)c2OCCN1Cc1cc[nH]c(=O)c1` [Compound 226], 0.1 to 0.5 µM.

Values taken from US12624024B2, “EP2 antagonist compounds” (Reservoir Neuroscience, Inc., priority 2021, dated 2026).
